One may read the inhibition as the relative decrease from the control value, in per cent.

Sequence of Human VPS34 (Q8NEB9 whole entry): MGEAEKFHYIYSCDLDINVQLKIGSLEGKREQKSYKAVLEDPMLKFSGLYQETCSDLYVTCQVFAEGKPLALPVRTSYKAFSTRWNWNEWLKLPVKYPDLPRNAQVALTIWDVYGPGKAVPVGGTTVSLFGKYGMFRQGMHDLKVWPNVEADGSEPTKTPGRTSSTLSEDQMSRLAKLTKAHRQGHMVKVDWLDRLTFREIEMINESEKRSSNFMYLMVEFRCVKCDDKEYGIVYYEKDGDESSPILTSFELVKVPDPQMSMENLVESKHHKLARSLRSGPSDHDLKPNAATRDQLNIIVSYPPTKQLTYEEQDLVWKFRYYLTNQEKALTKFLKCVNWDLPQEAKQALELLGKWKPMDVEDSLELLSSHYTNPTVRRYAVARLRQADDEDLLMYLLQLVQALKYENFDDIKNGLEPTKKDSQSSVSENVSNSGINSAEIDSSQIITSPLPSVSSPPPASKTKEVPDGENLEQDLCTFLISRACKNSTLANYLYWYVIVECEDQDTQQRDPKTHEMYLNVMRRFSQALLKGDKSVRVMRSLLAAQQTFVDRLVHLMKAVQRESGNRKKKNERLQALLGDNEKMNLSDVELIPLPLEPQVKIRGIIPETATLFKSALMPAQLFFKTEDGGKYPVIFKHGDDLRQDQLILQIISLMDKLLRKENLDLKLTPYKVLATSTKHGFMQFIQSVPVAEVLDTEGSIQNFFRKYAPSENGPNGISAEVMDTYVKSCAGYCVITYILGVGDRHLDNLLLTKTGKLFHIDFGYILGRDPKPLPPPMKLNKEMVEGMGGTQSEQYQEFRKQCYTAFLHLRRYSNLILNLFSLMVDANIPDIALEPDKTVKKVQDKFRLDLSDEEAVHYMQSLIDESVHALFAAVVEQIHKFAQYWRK

The assay concerns the target Human VPS34 (Homo sapiens (Human), UniProt Q8NEB9). Put plainly: Human VPS34 enzyme assay (Adapta TR-FRET). The assay is classed as biochemical. As to conditions: compound concentration 1.11 μM; read-out: Percent Inhibition. A general note: In TR-FRET formats the signal depends on donor and acceptor labels being close together.
As to `Cc1nccc(Nc2cc(-c3cnc(C)c(OCCN(C)C)c3)ccn2)n1` [Compound I-379, 5-[2-(dimethylamino)ethoxy]-6-methyl-N-(2-methylpyrimidin-4-yl)-3,4′-bipyridin-2′-amine], the inhibition at 1.11 µM amounted to 47%.

As for `CC(=O)Nc1cc(-c2cnc(C#N)c(N3CCCCC3C)c2)ccn1` (centres unmarked) [Compound I-380, N-[6-cyano-5-(2-methylpiperidin-1-yl)-3,4′-bipyridin-2′-yl]acetamide], the inhibition at 1.11 µM came to 95%.

Consider `Cc1nccc(Nc2cc(-c3cnc(Cl)c(NS(=O)(=O)N(C)C)c3C)ccn2)n1` [Compound I-381, N′-{6-chloro-4-methyl-2′-[(2-methylpyrimidin-4-yl)amino]-3,4′-bipyridin-5-yl}-N,N-dimethylsulfuric diamide], for which the inhibition at 1.11 µM was above 99%. Under `Cc1nc(Nc2cc(-c3cnc(C)c(NS(=O)(=O)c4ccc(F)cc4F)c3)ccn2)nc(C2CC2)n1` [Compound I-382, N-{2′-[(4-cyclopropyl-6-methyl-1,3,5-triazin-2-yl)amino]-6-methyl-3,4′-bipyridin-5-yl}-2,4-difluorobenzene sulfonamide] stands above 99%. Take `CCOC(=O)Nc1cc(-c2cnc(Cl)c(NS(=O)(=O)c3ccc(F)cc3F)c2C)ccn1` [Compound I-383, ethyl (6-chloro-5-{[(2,4-difluorophenyl)sulfonyl]amino}-4-methyl-3,4′-bipyridin-2′-yl)carbamate]: the inhibition at 1.11 µM stood at 91%.

With `CC(=O)Nc1cc(-c2cncc(N(CCO)S(=O)(=O)c3ccc(F)cc3F)c2)ccn1` [Compound I-384, N-(5-{[(2,4-difluorophenyl)sulfonyl](2-hydroxyethyl)amino}-3,4′-bipyridin-2′-yl)acetamide], the inhibition at 1.11 µM is 73%. Under `CC(=O)Nc1cc(-c2cnc(C)c(N3CCN(C)S3(=O)=O)c2)ccn1` [Compound I-386, N-[6-methyl-5-(5-methyl-1,1-dioxido-1,2,5-thiadiazolidin-2-yl)-3,4′-bipyridin-2′-yl]acetamide] stands 96%; under `CC(=O)Nc1cc(-c2cnc(C)c(N3CCCNS3(=O)=O)c2)ccn1` [Compound I-387, N-[5-(1,1-dioxido-1,2,6-thiadiazinan-2-yl)-6-methyl-3,4′-bipyridin-2′-yl]acetamide], above 99%. Turning to `Cc1ncc(-c2ccnc(NC(=O)C3CC3)c2)cc1C(=O)N(C)C12CC(C1)C2` [Compound I-388, N-(bicyclo[1.1.1]pent-1-yl)-2′-[(cyclopropylcarbonyl)amino]-N,6-dimethyl-3,4′-bipyridine-5-carboxamide], the inhibition at 1.11 µM was determined as 98%. In the case of `CCOC(=O)Nc1cc(-c2cnc(C)c(NS(=O)(=O)c3ccc(F)cc3F)c2)ccn1` [Compound I-389, ethyl (5-{[(2,4-difluorophenyl)sulfonyl]amino}-6-methyl-3,4′-bipyridin-2′-yl)carbamate], the inhibition at 1.11 µM was 95%. Turning to `Cc1ccc(Oc2cc(-c3ccnc(Nc4ccnc(C)n4)c3)cnc2C)nc1` [Compound I-390, 6-methyl-5-[(5-methylpyridin-2-yl)oxy]-N-(2-methylpyrimidin-4-yl)-3,4′-bipyridin-2′-amine], the inhibition at 1.11 µM was 98%.

Turning to `CC(=O)Nc1cc(-c2cncc(S(=O)(=O)N3CC(F)(F)C3)c2)ccn1` [Compound I-391, N-{5-[(3,3-difluoroazetidin-1-yl)sulfonyl]-3,4′-bipyridin-2′-yl}acetamide], the inhibition at 1.11 µM was above 99%.

Take `CC(=O)Nc1cc(-c2cnc(C)c(Nc3nc4ccccc4o3)c2)ccn1` [Compound I-392, N-[5-(1,3-benzoxazol-2-ylamino)-6-methyl-3,4′-bipyridin-2′-yl]acetamide]: the inhibition at 1.11 µM was determined as 82%. Take `CC(=O)Nc1cc(-c2cncc(NS(=O)(=O)c3ccc(F)cc3F)c2Cl)ccn1` [Compound I-394, N-(4-chloro-5-{[(2,4-difluorophenyl)sulfonyl]amino}-3,4′-bipyridin-2′-yl)acetamide]: the inhibition at 1.11 µM is above 99%. As for `CC(=O)Nc1cc(-c2cnc(C)c(S(N)(=O)=O)c2)ccn1` [Compound I-395, N-(6-methyl-5-sulfamoyl-3,4′-bipyridin-2′-yl)acetamide], the inhibition at 1.11 µM was above 99%. As to `CC(=O)Nc1cc(-c2cncc(S(=O)(=O)NC3CCC3)c2)ccn1` [Compound I-396, N-[5-(cyclobutylsulfamoyl)-3,4′-bipyridin-2′-yl]acetamide], the inhibition at 1.11 µM was 94%. With `CC(=O)Nc1cc(-c2cncc(N(C)C(=O)c3ccc(F)cc3F)c2)ccn1` [Compound I-397, N-(2′-acetamido-3,4′-bipyridin-5-yl)-2,4-difluoro-N-methylbenzamide], the inhibition at 1.11 µM came out at 100%. On to `CC(=O)Nc1cc(-c2cnc(C)c(N(C)C(=O)c3ccc(F)cc3F)c2)ccn1` [Compound I-398, N-(2′-acetamido-6-methyl-3,4′-bipyridin-5-yl)-2,4-difluoro-N-methylbenzamide], for which the inhibition at 1.11 µM amounted to 93%. With `CC(=O)Nc1cc(-c2cnc(Cl)c(NS(=O)(=O)c3ccc(Cl)cc3F)c2C)ccn1` [Compound I-399, N-(6-chloro-5-{[(4-chloro-2-fluorophenyl)sulfonyl]amino}-4-methyl-3,4′-bipyridin-2′-yl)acetamide], the inhibition at 1.11 µM was 100%.

As for `CC(=O)Nc1cc(-c2cnc(Cl)c(NS(=O)(=O)c3cc(Cl)ccc3Cl)c2C)ccn1` [Compound I-401, N-(6-chloro-5-{[(2,5-dichlorophenyl)sulfonyl]amino}-4-methyl-3,4′-bipyridin-2′-yl)acetamide], the inhibition at 1.11 µM was above 99%. Then `Cc1nccc(Nc2cc(-c3cnc(Cl)c(C(=O)O)c3C)ccn2)n1` [Compound I-402, 6-chloro-4-methyl-2′-[(2-methylpyrimidin-4-yl)amino]-3,4′-bipyridine-5-carboxylic acid], with 93%; and `CC(=O)Nc1cc(-c2cnc(Cl)c(S(=O)(=O)N[C@@H](CO)c3ccccc3)c2)ccn1` [Compound I-403, N-(6-chloro-5-{[(1R)-2-hydroxy-1-phenylethyl]sulfamoyl}-3,4′-bipyridin-2′-yl)acetamide], with 92%.

In the case of `CC(=O)Nc1cc(-c2cc(NS(=O)(=O)c3ccc(F)cc3F)c3ccnn3c2)ccn1` [Compound I-404, N-[4-(4-{[(2,4-difluorophenyl)sulfonyl]amino}pyrazolo[1,5-a]pyridin-6-yl)pyridin-2-yl]acetamide], the inhibition at 1.11 µM stood at 94%. For `CC(=O)Nc1cc(-c2cncc(N3CCOc4cc(F)ccc4S3(=O)=O)c2)ccn1` [Compound I-405], the inhibition at 1.11 µM was above 99%.

Regarding `Cc1nccc(Nc2cc(-c3cnc4c(c3)C(=O)NCC4)ccn2)n1` [Compound I-406, 3-[2-[(2-methylpyrimidin-4-yl)amino]-4-pyridyl]-7,8-dihydro-6H-1,6-naphthyridin-5-one], the inhibition at 1.11 µM was found to be 80%. Then `Cc1nccc(Nc2cc(-c3cc(NC(=O)N4CC(F)(F)C4)c4ccnn4c3)ccn2)n1` [Compound I-407, 3,3-difluoro-N-(6-{2-[(2-methylpyrimidin-4-yl)amino]pyridin-4-yl}pyrazolo[1,5-a]pyridin-4-yl)azetidine-1-carboxamide], with 98%; and `Cc1nccc(Nc2cc(-c3cncc(C(=O)N4CC(F)(F)C4)c3)ccn2)n1` [Compound I-408, (3,3-difluoroazetidin-1-yl){2′-[(2-methylpyrimidin-4-yl)amino]-3,4′-bipyridin-5-yl}methanone], with above 99%.

For `CC(=O)Nc1cc(-c2cnc(N)c(C(=O)NC(=N)N)c2)ccn1` [Compound I-409, 2′-acetamido-6-amino-N-carbamimidoyl-3,4′-bipyridine-5-carboxamide], the inhibition at 1.11 µM was determined as 82%.

With `CC(=O)Nc1cc(-c2cnc(Cl)c(S(=O)(=O)NC(C)(C)C)c2C)ccn1` [Compound I-410, N-[5-(tert-butylsulfamoyl)-6-chloro-4-methyl-3,4′-bipyridin-2′-yl]acetamide], the inhibition at 1.11 µM stood at 96%. Consider `CC(=O)Nc1cc(-c2cnc(C#N)c(NS(=O)(=O)c3ccc(F)cc3F)c2)ccn1` [Compound I-411, N-(6-cyano-5-{[(2,4-difluorophenyl)sulfonyl]amino}-3,4′-bipyridin-2′-yl)acetamide], for which the inhibition at 1.11 µM was determined as 88%. Turning to `CC(=O)Nc1cc(-c2cnc(C)c(NS(=O)(=O)CC(F)F)c2)ccn1` [Compound I-412, N-(5-{[(2,2-difluoroethyl)sulfonyl]amino}-6-methyl-3,4′-bipyridin-2′-yl)acetamide], the inhibition at 1.11 µM is 97%. On to `O=C(c1cncc(-c2ccnc(Nc3ccnc(C4CC4)n3)c2)c1)N1CC(F)(F)C1` [Compound I-413], for which the inhibition at 1.11 µM is above 99%.

Take `CC(=O)Nc1cc(-c2cnc(C)c(NS(=O)(=O)c3ccc(F)cc3F)c2)cc(C)n1` [Compound I-414, N-(5-{[(2,4-difluorophenyl)sulfonyl]amino}-6,6′-dimethyl-3,4′-bipyridin-2′-yl)acetamide]: the inhibition at 1.11 µM was determined as 89%. Regarding `Cc1nccc(Nc2cc(-c3cnc(C)c(C(=O)N4CC5(COC5)C4)c3)ccn2)n1` [Compound I-415, {6-methyl-2′-[(2-methylpyrimidin-4-yl)amino]-3,4′-bipyridin-5-yl}(2-oxa-6-azaspiro[3.3]hept-6-yl)methanone], the inhibition at 1.11 µM stood at 82%. Regarding `CC(=O)Nc1cc(-c2cnc(C)c(N3CC=CS3(=O)=O)c2)ccn1` [Compound I-416, N-[5-(1,1-dioxidoisothiazol-2(3H)-yl)-6-methyl-3,4′-bipyridin-2′-yl]acetamide], the inhibition at 1.11 µM is above 99%.

In the case of `COC(=O)Nc1cc(-c2cnc(C)c(NS(=O)(=O)c3ccc(Cl)cc3F)c2)ccn1` [Compound I-417, methyl (5-{[(4-chloro-2-fluorophenyl)sulfonyl]amino}-6-methyl-3,4′-bipyridin-2′-yl)carbamate], the inhibition at 1.11 µM was above 99%. Turning to `CC(=O)Nc1cc(-c2cnc(C)c(S(=O)(=O)NC34CC(C3)C4)c2)ccn1` [Compound I-418, N-[5-(bicyclo[1.1.1]pent-1-ylsulfamoyl)-6-methyl-3,4′-bipyridin-2′-yl]acetamide], the inhibition at 1.11 µM was above 99%.

`CC(=O)Nc1cc(-c2cncc(NC(=O)c3ccc(F)cc3F)c2)ccn1` [Compound I-419, N-(2′-acetamido-3,4′-bipyridin-5-yl)-2,4-difluorobenzamide]: the inhibition at 1.11 µM worked out at 56%.

The values above are taken from patent publication US9802960B2 (MILLENNIUM PHARMACEUTICALS, INC., priority 2014, dated 2017).
